Data taken from patent publication US10294202B2, “Pyrrolidinones as herbicides” (FMC Corporation, priority 2013, dated 2019).

Tests used:
johnsongrass = assay: Test C pre-/postemergence herbicide test; format: in vivo, Sorghum halepense
Method in brief: (§1)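 Pre-emergence: seeds sown in loam/sand blend and treated with compound in surfactant-containing solvent. Post-emergence: plants at 2–18 cm (1- to 4-leaf stage) in peat-based medium sprayed with the same formulation. Visual rating versus controls after 13–15 days in greenhouse, scale 0 (no effect) to 100 (complete control).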

crabgrass, large = assay: Test C pre-/postemergence herbicide test; format: in vivo, Digitaria sanguinalis
Method in brief: as §1

barnyardgrass [1] = assay: Test C pre-/postemergence herbicide test; format: in vivo, Echinochloa crus-galli
Method in brief: as §1

giant foxtail = assay: Test A pre-/postemergence herbicide test; format: in vivo, Setaria faberii
Method in brief: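 Seeds in loam–sand blend received preemergence directed soil spray; separately, plants 2–10 cm at one- to two-leaf stage received postemergence spray, both with test chemicals in non-phytotoxic solvent with surfactant. After ~10 days in greenhouse, injury rated visually against untreated controls, 0 (no effect) to 100 (complete control).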

waterhemp = assay: Test C pre-/postemergence herbicide test; format: in vivo, Amaranthus rudis
Method in brief: as §1

barnyardgrass [2] = assay: Test B flooded paddy test; format: in vivo, Echinochloa crus-galli; details: 500 g ai/ha, Flood; scale of 0 to 100 where 0 is no effect and 100 is complete control
Method in brief: (§2)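 Visual ratings from 0, meaning no effect, up to 100, meaning complete control, were made by comparison with untreated controls 13 to 15 days after treatment. Test compounds went straight into floodwater standing 3 cm over the soil of pots holding 2-leaf seedlings.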

sedge, umbrella = assay: Test B flooded paddy test; format: in vivo, Cyperus difformis; details: 500 g ai/ha, Flood; scale of 0 to 100 where 0 is no effect and 100 is complete control
Method in brief: as §2

ryegrass, Italian = assay: Test C pre-/postemergence herbicide test; format: in vivo, Lolium multiflorum
Method in brief: as §1

oat, wild = assay: Test C pre-/postemergence herbicide test; format: in vivo, Avena fatua; details: Postemergence
Method in brief: as §1

velvetleaf = assay: Test C pre-/postemergence herbicide test; format: in vivo, Abutilon theophrasti
Method in brief: as §1

ragweed = assay: Test C pre-/postemergence herbicide test; format: in vivo, Ambrosia elatior
Method in brief: as §1

[3] = Postemergence, 16 g ai/ha, scale 0 to 100 (0 no effect, 100 complete control)
[4] = Postemergence, 31 g ai/ha, scale 0 to 100 (0 no effect, 100 complete control)
[5] = Postemergence, 62 g ai/ha, scale 0 (no effect) to 100 (complete control)
[6] = Postemergence, 125 g ai/ha, scale 0 to 100 (0 no effect, 100 complete control)
[7] = Preemergence, 31 g ai/ha, scale 0 to 100, 0 is no effect and 100 is complete control
[8] = Preemergence, 62 g ai/ha, scale 0 to 100 (0 no effect, 100 complete control)
[9] = Preemergence, 125 g ai/ha, scale 0 to 100 (0 no effect, 100 complete control)
[10] = Preemergence, 16 g ai/ha, scale 0 to 100
[11] = Postemergence, 500 g ai/ha, 0 to 100 scale (0 no effect, 100 complete control)
[12] = Preemergence, 125 g ai/ha, 0 to 100 scale where 0 is no effect and 100 is complete control
[13] = 31 g ai/ha, scale 0 to 100 (0 no effect, 100 complete control)
[14] = 62 g ai/ha, scale 0 (no effect) to 100 (complete control)
[15] = 125 g ai/ha, scale 0 to 100 (0 no effect, 100 complete control)
[16] = Postemergence, 250 g ai/ha, scale 0 to 100 (0 no effect, 100 complete control)

With `CN1CC(c2ccc(C(F)(F)F)cc2)C(C(=O)Nc2ccccc2F)C1=O` (stereo not drawn) [Compound 304] the “Plant response rating, Johnsongrass” value (johnsongrass; [3]) was 0, the “Plant response rating, Johnsongrass” value (johnsongrass; [4]) was 0 and the “Plant response rating, Johnsongrass” value (johnsongrass; [5]) was 0. The “Plant response rating, Johnsongrass” value (johnsongrass; [6]) was 0, the “Johnsongrass plant response rating” value (johnsongrass; [7]) was 0 and the “Johnsongrass plant response rating” value (johnsongrass; [8]) was 35. For the same compound, the “Plant response rating, Johnsongrass” value (johnsongrass; [9]) was 35, the “Plant response rating, Johnsongrass” value (johnsongrass; [10]) was 0 and the “Plant response rating, Crabgrass, Large” value (crabgrass, large; [3]) was 10. For the same compound, the “Plant response rating, Crabgrass, Large” value (crabgrass, large; [4]) was 10, the “Plant response rating, Crabgrass, Large” value (crabgrass, large; [5]) was 60 and the “Plant response rating, Crabgrass, Large” value (crabgrass, large; [6]) was 80. For the same compound, the “Crabgrass, Large plant response rating” value (crabgrass, large; [7]) was 95, the “Crabgrass, Large plant response rating” value (crabgrass, large; [8]) was 95 and the “Plant response rating, Crabgrass, Large” value (crabgrass, large; [9]) was 98. For the same compound, the “Plant response rating, Crabgrass, Large” value (crabgrass, large; [10]) was 90, the “Plant response rating, Barnyardgrass” value (barnyardgrass [1]; [3]) was 0 and the “Plant response rating, Barnyardgrass” value (barnyardgrass [1]; [4]) was 0. The “Plant response rating, Barnyardgrass” value (barnyardgrass [1]; [5]) was 0, the “Plant response rating, Barnyardgrass” value (barnyardgrass [1]; [6]) was 40 and the “Barnyardgrass plant response rating” value (barnyardgrass [1]; [7]) was 85. For the same compound, the “Barnyardgrass plant response rating” value (barnyardgrass [1]; [8]) was 90, the “Plant response rating, Barnyardgrass” value (barnyardgrass [1]; [9]) was 95 and the “Plant response rating, Barnyardgrass” value (barnyardgrass [1]; [10]) was 85. For the same compound, the “Plant response rating, Foxtail, Giant” value (giant foxtail; Postemergence, 125 g ai/ha, visual rating on 0 to 100 scale (0 no effect, 100 complete control), approx. 10 days) was 80, the “Plant response rating, Foxtail, Giant” value (giant foxtail; [11]) was 80 and the “Plant response rating, Foxtail, Giant” value (giant foxtail; [12]) was 90. For the same compound, the “Foxtail, Giant plant response rating” value (giant foxtail; Preemergence, 500 g ai/ha, visual rating on 0 to 100 scale (0 no effect, 100 complete control)) was 90, the “Plant response rating, Waterhemp” value (waterhemp; [3]) was 40 and the “Plant response rating, Waterhemp” value (waterhemp; [4]) was 50. For the same compound, the “Plant response rating, Waterhemp” value (waterhemp; [5]) was 65, the “Plant response rating, Waterhemp” value (waterhemp; [6]) was 80 and the “Waterhemp plant response rating” value (waterhemp; [7]) was 75. For the same compound, the “Waterhemp plant response rating” value (waterhemp; [8]) was 80, the “Plant response rating, Waterhemp” value (waterhemp; [9]) was 85 and the “Plant response rating, Waterhemp” value (waterhemp; [10]) was 70. The “Plant response rating, Barnyardgrass” value (barnyardgrass [2]) was 80, the “Plant response rating, Sedge, Umbrella” value (sedge, umbrella) was 0 and the “Plant response rating, Ryegrass, Italian” value (ryegrass, Italian; [3]) was 0. For the same compound, the “Plant response rating, Ryegrass, Italian” value (ryegrass, Italian; [4]) was 0, the “Plant response rating, Ryegrass, Italian” value (ryegrass, Italian; [5]) was 5 and the “Plant response rating, Ryegrass, Italian” value (ryegrass, Italian; [6]) was 0. The “Ryegrass, Italian plant response rating” value (ryegrass, Italian; [7]) was 30, the “Ryegrass, Italian plant response rating” value (ryegrass, Italian; [8]) was 75 and the “Plant response rating, Ryegrass, Italian” value (ryegrass, Italian; [9]) was 40. For the same compound, the “Plant response rating, Ryegrass, Italian” value (ryegrass, Italian; [10]) was 10, the “Plant response rating, Oat, Wild” value (oat, wild; 16 g ai/ha, scale 0 to 100 (0 no effect, 100 complete control)) was 0 and the “Plant response rating, Oat, Wild” value (oat, wild; [13]) was 0. For the same compound, the “Plant response rating, Oat, Wild” value (oat, wild; [14]) was 0, the “Plant response rating, Oat, Wild” value (oat, wild; [15]) was 0 and the “Plant response rating, Velvetleaf” value (velvetleaf; [3]) was 0. The “Plant response rating, Velvetleaf” value (velvetleaf; [4]) was 5, the “Plant response rating, Velvetleaf” value (velvetleaf; [5]) was 15 and the “Plant response rating, Velvetleaf” value (velvetleaf; [6]) was 15. For the same compound, the “Velvetleaf plant response rating” value (velvetleaf; [7]) was 20, the “Velvetleaf plant response rating” value (velvetleaf; [8]) was 35 and the “Plant response rating, Velvetleaf” value (velvetleaf; [9]) was 50. The “Plant response rating, Velvetleaf” value (velvetleaf; [10]) was 0, the “Plant response rating, Ragweed” value (ragweed; [3]) was 0 and the “Plant response rating, Ragweed” value (ragweed; [4]) was 0. For the same compound, the “Plant response rating, Ragweed” value (ragweed; [5]) was 0, the “Plant response rating, Ragweed” value (ragweed; [6]) was 35 and the “Ragweed plant response rating” value (ragweed; [7]) was 60. The “Ragweed plant response rating” value (ragweed; [8]) was 60, the “Plant response rating, Ragweed” value (ragweed; [9]) was 80 and the “Plant response rating, Ragweed” value (ragweed; [10]) was 25.
`O=C1NCC(c2cc(F)cc(F)c2)C1C(=O)Nc1cccc(F)c1F` (racemic) [Compound 279] was tested, and the “Plant response rating, Johnsongrass” value (johnsongrass; [4]) was 0, the “Plant response rating, Johnsongrass” value (johnsongrass; [5]) was 0 and the “Plant response rating, Johnsongrass” value (johnsongrass; [6]) was 0. For the same compound, the “Plant response rating, Johnsongrass” value (johnsongrass; [16]) was 0, the “Johnsongrass plant response rating” value (johnsongrass; [7]) was 0 and the “Johnsongrass plant response rating” value (johnsongrass; [8]) was 25. The “Plant response rating, Johnsongrass” value (johnsongrass; [9]) was 70, the “Plant response rating (scale of 0 to 100), Johnsongrass” value (johnsongrass; Preemergence, 250 g ai/ha) was 80 and the “Plant response rating, Crabgrass, Large” value (crabgrass, large; [4]) was 25. For the same compound, the “Plant response rating, Crabgrass, Large” value (crabgrass, large; [5]) was 65, the “Plant response rating, Crabgrass, Large” value (crabgrass, large; [6]) was 70 and the “Plant response rating, Crabgrass, Large” value (crabgrass, large; [16]) was 80. For the same compound, the “Crabgrass, Large plant response rating” value (crabgrass, large; [7]) was 95, the “Crabgrass, Large plant response rating” value (crabgrass, large; [8]) was 95 and the “Plant response rating, Crabgrass, Large” value (crabgrass, large; [9]) was 98. For the same compound, the “Plant response rating (scale of 0 to 100), Crabgrass, Large” value (crabgrass, large; Preemergence, 250 g ai/ha) was 100, the “Plant response rating, Barnyardgrass” value (barnyardgrass [1]; [4]) was 15 and the “Plant response rating, Barnyardgrass” value (barnyardgrass [1]; [5]) was 55. The “Plant response rating, Barnyardgrass” value (barnyardgrass [1]; [6]) was 85, the “Plant response rating, Barnyardgrass” value (barnyardgrass [1]; [16]) was 85 and the “Barnyardgrass plant response rating” value (barnyardgrass [1]; [7]) was 80. The “Barnyardgrass plant response rating” value (barnyardgrass [1]; [8]) was 95, the “Plant response rating, Barnyardgrass” value (barnyardgrass [1]; [9]) was 95 and the “Plant response rating (scale of 0 to 100; 0 is no effect, 100 is complete control), Barnyardgrass” value (barnyardgrass [1]; Preemergence, 250 g ai/ha) was 98. For the same compound, the “Plant response rating, Foxtail, Giant” value (giant foxtail; Postemergence, 125 g ai/ha, 0 to 100 scale, 0 is no effect, 100 is complete control) was 80, the “Plant response rating, Foxtail, Giant” value (giant foxtail; [11]) was 90 and the “Plant response rating, Foxtail, Giant” value (giant foxtail; [12]) was 90. For the same compound, the “Plant response rating, Foxtail, Giant” value (giant foxtail; preemergence, 500 g ai/ha, 0 to 100 scale, 0 is no effect and 100 is complete control) was 90, the “Plant response rating, Waterhemp” value (waterhemp; [4]) was 5 and the “Plant response rating, Waterhemp” value (waterhemp; [5]) was 20. The “Plant response rating, Waterhemp” value (waterhemp; [6]) was 15, the “Plant response rating, Waterhemp” value (waterhemp; [16]) was 15 and the “Waterhemp plant response rating” value (waterhemp; [7]) was 0. For the same compound, the “Waterhemp plant response rating” value (waterhemp; [8]) was 15, the “Plant response rating, Waterhemp” value (waterhemp; [9]) was 55 and the “Plant response rating (scale of 0 to 100), Waterhemp” value (waterhemp; Preemergence, 250 g ai/ha) was 80. For the same compound, the “Plant response rating, Barnyardgrass” value (barnyardgrass [2]) was 75, the “Plant response rating, Sedge, Umbrella” value (sedge, umbrella) was 0 and the “Plant response rating, Ryegrass, Italian” value (ryegrass, Italian; [4]) was 0. The “Plant response rating, Ryegrass, Italian” value (ryegrass, Italian; [5]) was 0, the “Plant response rating, Ryegrass, Italian” value (ryegrass, Italian; [6]) was 0 and the “Plant response rating, Ryegrass, Italian” value (ryegrass, Italian; [16]) was 0. For the same compound, the “Ryegrass, Italian plant response rating” value (ryegrass, Italian; [7]) was 0, the “Ryegrass, Italian plant response rating” value (ryegrass, Italian; [8]) was 10 and the “Plant response rating, Ryegrass, Italian” value (ryegrass, Italian; [9]) was 30. The “Plant response rating (scale of 0 to 100), Ryegrass, Italian” value (ryegrass, Italian; Preemergence, 250 g ai/ha) was 60, the “Plant response rating, Oat, Wild” value (oat, wild; [13]) was 0 and the “Plant response rating, Oat, Wild” value (oat, wild; [14]) was 0. For the same compound, the “Plant response rating, Oat, Wild” value (oat, wild; [15]) was 0, the “Plant response rating, Oat, Wild” value (oat, wild; 250 g ai/ha, scale 0 to 100 (0 no effect, 100 complete control)) was 0 and the “Plant response rating, Velvetleaf” value (velvetleaf; [4]) was 0. The “Plant response rating, Velvetleaf” value (velvetleaf; [5]) was 10, the “Plant response rating, Velvetleaf” value (velvetleaf; [6]) was 10 and the “Plant response rating, Velvetleaf” value (velvetleaf; [16]) was 10. The “Velvetleaf plant response rating” value (velvetleaf; [7]) was 0, the “Velvetleaf plant response rating” value (velvetleaf; [8]) was 0 and the “Plant response rating, Velvetleaf” value (velvetleaf; [9]) was 0. For the same compound, the “Plant response rating (scale of 0 to 100), Velvetleaf” value (velvetleaf; Preemergence, 250 g ai/ha) was 30, the “Plant response rating, Ragweed” value (ragweed; [4]) was 15 and the “Plant response rating, Ragweed” value (ragweed; [5]) was 20. The “Plant response rating, Ragweed” value (ragweed; [6]) was 35, the “Plant response rating, Ragweed” value (ragweed; [16]) was 35 and the “Ragweed plant response rating” value (ragweed; [7]) was 0. The “Ragweed plant response rating” value (ragweed; [8]) was 0, the “Plant response rating, Ragweed” value (ragweed; [9]) was 10 and the “Plant response rating (scale of 0 to 100), Ragweed” value (ragweed; Preemergence, 250 g ai/ha) was 65.
